In US20250296971A1, “GASTRIC INHIBITORY PEPTIDE RECEPTOR LIGANDS” (priority 2021, published 2025):
Read-outs that look alike come from different tables or passages of the source. *1 amine or outer side, *2 acyl side, *3 side chain or, on linkers, in order; H or OH if unused. Where a SMILES comes first, the peptide text is derived from it. Bridges are numbered along the chain shown (N, C = ends). [ ]: non-standard residue; d: D form. The star is where a group is joined. NH(1-deoxy-D-glucityl) = OC[C@@H](O)[C@@H](O)[C@H](O)[C@@H](O)CN*; DOTA = O=C(O)CN1CCN(CC(=O)O)CCN(CC(=O)*)CCN(CC(=O)O)CC1; Trp(5-Cl) = N[C@@H](Cc1c[nH]c2ccc(Cl)cc12)C(=O)O; Pyridine(2,6-diCH2) = c1cc(C[*:1])nc(C[*:2])c1; Glutaryl = O=C(CCCC(=O)[*:2])[*:1]; Hyp = O=C(O)[C@@H]1C[C@@H](O)CN1; X1 = O=C(CN1CCC(N[*:1])CC1)[*:2]; Suc = O=C(CCC(=O)[*:2])[*:1]; Api = NC1(C(=O)O)CCNCC1; Thp = NC1(C(=O)O)CCOCC1

Experiments:
[1] = biological target: T1, GIPR (CHO-K1-hGIPR cells) (Homo sapiens, UniProt P48546); assay: FACS binding assay; conditions: read-out: pIC50 Category (converted)
T1 construct: host or cells: CHO-K1
T1 sequence (P48546 22-466): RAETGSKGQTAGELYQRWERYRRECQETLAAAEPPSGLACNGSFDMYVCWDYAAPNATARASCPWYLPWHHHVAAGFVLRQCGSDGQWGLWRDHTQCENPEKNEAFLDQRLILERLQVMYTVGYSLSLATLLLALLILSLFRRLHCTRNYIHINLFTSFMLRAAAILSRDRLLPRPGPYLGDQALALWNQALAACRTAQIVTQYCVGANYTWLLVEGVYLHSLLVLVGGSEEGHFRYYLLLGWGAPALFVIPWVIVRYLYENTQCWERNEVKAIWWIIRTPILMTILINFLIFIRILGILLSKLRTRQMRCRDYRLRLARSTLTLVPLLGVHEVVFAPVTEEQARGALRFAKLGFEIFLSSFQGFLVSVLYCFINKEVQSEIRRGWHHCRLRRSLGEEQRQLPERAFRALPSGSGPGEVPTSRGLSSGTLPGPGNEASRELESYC
Summary of the method: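 Read-out: flow cytometric median fluorescence intensity, APC/Cy5 channel, plotted vs peptide conc.; 4PL fit → EC50/pEC50 or IC50/pIC50. Cells: CHO-K1-hGIPR, Accutase-detached, 500.000/mL in PBS + 1% FCS. Detection: APC-streptavidin 1 μg/mL, 30 min, on ice.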

[2] = biological target: T2, human GIP receptor (bioGIPR) (Homo sapiens, UniProt P48546); assay: Surface plasmon resonance (SPR) based binding assay; conditions: Single Cycle Kinetic mode, 25° C.; for t1/2 Category: SPR dissociation half-life; for Kd: SPR, 1:1 Langmuir binding model, read-out: pKD Category (converted)
T2 construct: Biotinylate extracellular of the human GIP receptor (bioGIPR, Proteros biostructures GmbH, lot #02/2b); purchased Proteros biostructures GmbH lot #02/2b
T2 sequence (P48546 22-138 limits assumed): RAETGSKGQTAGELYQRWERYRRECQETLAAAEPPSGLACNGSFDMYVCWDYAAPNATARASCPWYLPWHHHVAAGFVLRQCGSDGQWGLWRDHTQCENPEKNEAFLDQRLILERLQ
Experimental: Surface plasmon resonance (SPR) studies were performed using a Biacore™ T200 SPR system. Briefly, polarized light is directed towards a gold-labeled sensor surface, and minimum intensity reflected light is detected. The angle of reflected light changes as molecules bind and dissociate.
Biotinylate extracellular of the human GIP receptor (bioGIPR, Proteros biostructures GmbH, lot #02/2b) was captured on a biotin capture chip (Biotin CAPture Kit, Series S, GE Healthcare, Cat #28-9202-34). bioGIPR was diluted in Running Buffer (HBST from Xantec Analytics; […], 0.05% Tween20, 0.1% DMSO) to a final concentration 100 nM and than flushed over the Fc-capture chip to immobilized ˜3500 RUs.
Stock solutions of test compounds were prepared by dissolving each compound in DMSO. DMSO stock solution were diluted 1:1000 in Running Buffer without DMSO. Further sequential dilutions were made with Running Buffer containing 0.1% DMSO. SPR binding analyses were performed in Single Cycle Kinetic (SCK) mode at 25° C. Flow cell without immobilized bioGIPR served as reference flowcell. After each SCK run, bioGIRP and the Biotin Capture Reagent was removed with Regeneration Solution (6 M Guanidium, 0.75 M NaOH).
In between every three SCK measurements, a blank run with Running Buffer instead of test compound was included to correct for baseline drifts (double blanking method).
For each test compound, SPR raw data in the form of resonance units (RU) were plotted as sensorgrams using the Biacore™ T200 control software. The signal from the blank sensorgram was subtracted from that of the test compound sensorgram (blank corrected). The blank corrected sensorgram was corrected for baseline drift by subtracting the sensorgram of a SCK run without the test compound (running buffer only). The association rate (kon), dissociation rate (koff), dissociation constant (KD), and t1/2 were calculated from blank corrected SPR data using the 1:1 Langmuir binding model from the Biacore™ T200 evaluation software. Raw data and fit results were imported as text files in IDBS. The pKD value (negative decadic logarithm of dissociation constant) was calculated in the IDBS excel template.

[3] = competition with 20 nM GIP-057, 4° C., 1 hour

| IC50 ([1]; competition with 20 nM GIP-057, 4° C. for 1 hour) | t1/2 Category [2] | Kd [2] | IC50 [1, 3] | SMILES |
| --- | --- | --- | --- | --- |
| < 10 nM | A (t1/2 values>15 min) | 1 to 7.94 nM | – | CC[C@H](C)[C@@H]1NC(=O)[C@H](CC(C)C)NC(=O)C2(CCOCC2)NC(=O)[C@@H](NC(=O)[C@@H](CC(C)C)NC(=O)[C@H](Cc2c[nH]cn2)NC(=O)[C@@H]2C[C@@H](O)CN2C(=O)[C@H](Cc2c[nH]c3ccc(Cl)cc23)NC(=O)[C@H](Cc2c[nH]c3ccccc23)NC(=O)[C@H](CC(=O)O)NC(C)=O)CSCc2cccc(n2)CSC[C@@H](C(N)=O)NC1=O [GIP-377, Ac-Asp-Trp-5Clw-Hyp-His-leu-[Cys(2Lut)-Thp-Leu-Ile-Cys]-NH2] (Ac-DW[Trp(5-Cl)][Hyp]H[dL]C[Thp]LIC-NH2; linker 7-11 via Pyridine(2,6-diCH2)) |
| – | A (t1/2 values>15 min) | < 1 nM | < 10 nM | CC[C@H](C)[C@@H]1NC(=O)[C@H](CC(C)C)NC(=O)C2(CCOCC2)NC(=O)[C@@H](NC(=O)[C@@H](CC(C)C)NC(=O)[C@H](CCC(=O)O)NC(=O)[C@@H]2C[C@@H](O)CN2C(=O)[C@H](Cc2c[nH]c3ccc(Cl)cc23)NC(=O)[C@H](Cc2c[nH]c3ccccc23)NC(=O)CCC(=O)O)CSCc2cccc(n2)CSC[C@@H](C(=O)NC2CCN(CC(=O)N[C@H](CCC(=O)NC[C@H](O)[C@@H](O)[C@H](O)[C@H](O)CO)C(=O)N[C@@H](CCCCNC(=O)CN3CCN(CC(=O)O)CCN(CC(=O)O)CCN(CC(=O)O)CC3)C(N)=O)CC2)NC1=O [GIP-021, HO-Succinyl-Trp-5Clw-Hyp-Glu-leu-[Cys(2Lut)-Thp-Leu-Ile-Cys]-APAc-glu(AGLU)-Lys(DOTA)-NH2] (Suc-W[Trp(5-Cl)][Hyp]E[dL]C[Thp]LIC[X1][dE](NH(1-deoxy-D-glucityl))K(DOTA)-NH2; linker 6-10 via Pyridine(2,6-diCH2)) |
| – | A (t1/2 values>15 min) | < 1 nM | < 10 nM | CC[C@H](C)[C@@H]1NC(=O)[C@H](CC(C)C)NC(=O)C2(CCN(C(=O)CN3CCN(CC(=O)O)CCN(CC(=O)O)CCN(CC(=O)O)CC3)CC2)NC(=O)[C@@H](NC(=O)[C@@H](CC(C)C)NC(=O)[C@H](CCC(=O)O)NC(=O)[C@@H]2C[C@@H](O)CN2C(=O)[C@H](Cc2c[nH]c3ccc(Cl)cc23)NC(=O)[C@H](Cc2c[nH]c3ccccc23)NC(=O)[C@H](CC(=O)O)NC(=O)CN2CCC(NC(=O)CCCC(=O)NC[C@H](O)[C@@H](O)[C@H](O)[C@H](O)CO)CC2)CSCc2cccc(n2)CSC[C@@H](C(=O)NC2CCN(CC(=O)N[C@H](CCC(=O)NC[C@H](O)[C@@H](O)[C@H](O)[C@H](O)CO)C(N)=O)CC2)NC1=O [GIP-011, AGLU-Glutar-APAc-Asp-Trp-5Clw-Hyp-Glu-leu-[Cys(2Lut)-Apc(DOTA)-Leu-Ile-Cys]-APAc-glu(AGLU)-NH2] ({NH(1-deoxy-D-glucityl)-Glutaryl}-[X1]DW[Trp(5-Cl)][Hyp]E[dL]C[Api](DOTA)LIC[X1][dE](NH(1-deoxy-D-glucityl))-NH2; linker 8-12 via Pyridine(2,6-diCH2)) |
| – | A (t1/2 values>15 min) | < 1 nM | < 10 nM | CC[C@H](C)[C@@H]1NC(=O)[C@H](CC(C)C)NC(=O)C2(CCOCC2)NC(=O)[C@@H](NC(=O)[C@@H](CC(C)C)NC(=O)[C@H](CCC(=O)O)NC(=O)[C@@H]2C[C@@H](O)CN2C(=O)[C@H](Cc2c[nH]c3ccc(Cl)cc23)NC(=O)[C@H](Cc2c[nH]c3ccccc23)NC(=O)[C@H](CC(=O)O)NC(=O)CN2CCC(NC(=O)CN3CCN(CC(=O)O)CCN(CC(=O)O)CCN(CC(=O)O)CC3)CC2)CNCc2cccc(c2)CSCCNC1=O [GIP-107, DOTA-APAc-Asp-Trp-5Clw-Hyp-Glu-leu-[Dap(3MeBn)-Thp-Leu-Ile-AET]] |
